# Measurements from US20230203095A1, “BIOLOGICAL PEPTIDE FOR TREATING LUNG DISEASES AND APPLICATION THEREOF” (SHANGHAI INSTITUTE OF PHARMACEUTICAL INDUSTRY CO., LTD., priority 2019, published 2023).
# Square brackets hold non-standard residues; d marks the D form. Peptide text beside a SMILES is read from it.
# Key:
# [1] = Plasma drug concentrations and pharmacokinetics after a single subcutaneous injection of SP peptide or SIPI-D00 peptide in SD rats; type: in vivo
# Method: Route: Single back subcutaneous injection;
# Dosage of the drug: SP peptide and SIPI-D00 peptide were prepared into 3.33 mg/mL solution with normal saline, the dosage of SP peptide by back subcutaneous injection was 10 mg/kg body weight, and the dosage of SIPI-D00 peptide by back subcutaneous injection was 5 mg/kg body weight. […]
# [2] = tested on: ConA-stimulated mouse splenocytes; experiment: Secretion of IL-4 from mouse splenocytes stimulated by ConA (ELISA); type: cell-based, BALB/C mice; conditions: for IL-4 levels of polypeptides: ConA 5 µg/mL, 24 h
# Method: (§1) Three BALB/C mice were sacrificed by cervical dislocation after anesthesia. Then mice were immersed in 75% ethanol for 5 minutes. After dissection and spleen extraction, spleen lymphocytes were prepared. […] Different concentrations of test substances were added to each well, and duplicate wells were set for each concentration, and the final concentration of ConA was 5 µg/mL. The plate was incubated in a 37° C. 5% CO2 incubator for 24 h, the drug-containing cell suspension was aspirated from each well, then centrifuged at 200 g for 15 min at 4° C. The supernatant was taken, and mouse IL-4 Elisa kit was used to detect IL- 4 content.
# as §1, with “each concentration was” for “duplicate wells were”, “up as triple wells,” for “for each concentration,”, “kit (mouse IL-4 Elisa kit)” for “kit”
structure (smiles),measurement,setting,value
"C[C@H](O)[C@@H](NC(=O)[C@@H](Cc1ccc(O)cc1)NC(=O)[C@H](NC(=O)[C@@H](CO)NC(=O)CN)[C@H](C)O)C(=O)N[C@H](CCC(N)=O)C(=O)NCC(=O)O [SIPI-D00, GSTYTQG] (H-G[dS][dT][dY][dT][dQ]G-OH)",Plasma concentration,"[1]; SIPI-D00 5 mg/kg s.c., SD rats, time 0 h, parallels 1-4",0 ng/mL
same,Plasma concentration,"[1]; SIPI-D00 5 mg/kg s.c., SD rats, time 0.1 h, parallels 1-4, 5 mg/kg",5167 ng/mL
same,Plasma concentration,"[1]; SIPI-D00 5 mg/kg s.c., SD rats, time 0.333 h, parallels 1-4, 5 mg/kg",5836 ng/mL
same,Plasma concentration,"[1]; SIPI-D00 5 mg/kg s.c., SD rats, time 0.667 h, parallels 1-4, 5 mg/kg",5242 ng/mL
same,Plasma concentration,"[1]; SIPI-D00 5 mg/kg s.c., SD rats, time 2 h, parallels 1-4, 5 mg/kg",1185 ng/mL
same,Fa,"[1]; SIPI-D00 5 mg/kg single subcutaneous injection, SD rats, Mean±SD",96.3±13.3%
same,level at 0.1 h,"[1]; male, SD, rat, plasma, sc, 5 mg/kg, SIPI-D00 5 mg/kg s.c., SD rats, time 0.1 h, parallels 1-4, read-out: Plasma concentration",3580 ng/mL
same,level at 0.167 h,"[1]; male, SD, rat, plasma, sc, 5 mg/kg, SIPI-D00 5 mg/kg s.c., SD rats, time 0.167 h, parallels 1-4, read-out: Plasma concentration",4720 ng/mL
same,level at 0.333 h,"[1]; male, SD, rat, plasma, sc, 5 mg/kg, SIPI-D00 5 mg/kg s.c., SD rats, time 0.333 h, parallels 1-4, read-out: Plasma concentration",5890 ng/mL
same,level at 0.667 h,"[1]; male, SD, rat, plasma, sc, 5 mg/kg, SIPI-D00 5 mg/kg s.c., SD rats, time 0.667 h, parallels 1-4, read-out: Plasma concentration",5260 ng/mL
same,level at 1 h,"[1]; male, SD, rat, plasma, sc, 5 mg/kg, SIPI-D00 5 mg/kg s.c., SD rats, time 1 h, parallels 1-4, read-out: Plasma concentration",3940 ng/mL
same,level at 2 h,"[1]; male, SD, rat, plasma, sc, 5 mg/kg, SIPI-D00 5 mg/kg s.c., SD rats, time 2 h, parallels 1-4, read-out: Plasma concentration",1160 ng/mL
same,level at 3 h,"[1]; male, SD, rat, plasma, sc, 5 mg/kg, SIPI-D00 5 mg/kg s.c., SD rats, time 3 h, parallels 1-4, read-out: Plasma concentration",291 ng/mL
same,level at 4 h,"[1]; male, SD, rat, plasma, sc, 5 mg/kg, SIPI-D00 5 mg/kg s.c., SD rats, time 4 h, parallels 1-4, read-out: Plasma concentration",53.5 ng/mL
same,level at 6 h,"[1]; male, SD, rat, plasma, sc, 5 mg/kg, SIPI-D00 5 mg/kg s.c., SD rats, time 6 h, parallels 1-4, read-out: Plasma concentration",3.51 ng/mL
same,AUC compared with SP,"[1]; rat, in vivo, sc",significantly improved compared with SP
same,AUC(0-t),"[1]; rat, in vivo, sc, 5 mg/kg",8820 ± 1320 ng·h/mL
same,Cmax,"[1]; rat, in vivo, sc, 5 mg/kg",5910 ± 447 ng/mL
same,MRT last,"[1]; rat, in vivo, sc, 5 mg/kg",57.8 ± 1.14 min
same,Tmax,"[1]; rat, in vivo, sc, 5 mg/kg",12.5 ± 4.98 min
same,half-life,"[1]; rat, in vivo, sc, 5 mg/kg",90 min
same,secretion of IL-4 by ConA-stimulated mouse spleen lymphocytes (in words),[2],significantly inhibit
same,Inhibitory rate of polypeptide on IL-4 secretion,[2]; peptide concentration 1 µg/mL,34.96%
same,IL-4 levels of polypeptides,[2]; peptide concentration 1 µg/mL,14.05 ± 2.19 pg/mL
same,Inhibitory rate of polypeptide on IL-4 secretion,[2]; peptide concentration 3 µg/mL,59.68%
same,IL-4 levels of polypeptides,[2]; peptide concentration 3 µg/mL,8.71 ± 0.95 pg/mL
same,Inhibitory rate of polypeptide on IL-4 secretion,[2]; peptide concentration 10 µg/mL,71.00%
same,IL-4 levels of polypeptides,[2]; peptide concentration 10 µg/mL,6.26 ± 0.36 pg/mL
same,Inhibitory rate of polypeptide on IL-4 secretion,[2]; peptide concentration 30 µg/mL,72.82%
same,IL-4 levels of polypeptides,[2]; peptide concentration 30 µg/mL,5.87 ± 0.49 pg/mL
